This is an account of results in US20250101009A1, “Compounds, Compositions and Methods for Treatment of Age-Related Ocular Disorders” (priority 2022, published 2025).

The target in one series is T1, acetylcholinesterase (Homo sapiens, UniProt P22303).
T1 construct: purchased
The experiment in a line: Hydrolysis study in vitro with acetylcholinesterase (HPLC). Type of series: in vitro ADME. The note with it: for assay of compound remaining during enzymatic hydrolysis: acetylcholinesterase 2.0 mg/ml, simulated tear pH 7.4, 37.5° C. As for the experimental part:
The commercial esterase was dissolved in simulated tear (pH 7.4). Dissolving an appropriate amount of the compounds of the invention in solvent. The stock solutions were kept in screw-capped vials at 4° C. The reaction was initiated by adding stock solution of the prodrug to preheated esterase solution in a screw-capped vial at 37.5° C. The solution was kept in a water bath at 37.5° C. and at appropriate time intervals. 20 mL aliquot was taken and, after filtration using membrane syringe filter, analyzed immediately by HPLC.
The tear fluid was prepared by dissolving sodium chloride (0.67%, w/v), sodium bicarbonate (0.2% w/v) and calcium chloride dihydrate (0.008% w/v) in water and pH was adjusted to 7.4.
(§1) The acetylcholinesterase was dissolved in simulated tear (pH 7.4) to give a concentration of 2.0 mg/ml. Dissolving the appropriate number of compound 1 in pH 7.0 buffer solution to obtain a concentration of […]. The stock solutions were kept in screw-capped vials at 4° C. The reaction was initiated by adding 20 uL of a stock solution of the compound 1 in pH 7.0 buffer solution to 1 ml of preheated esterase solution in a screw-capped vial at 37.5° C., for a total of 10 identical reaction solutions. The reaction solutions were kept in a water bath at 37.5° C. and at 20 min intervals an aliquot was taken and, after filtration using membrane syringe filter, analyzed immediately by HPLC.
as §1, with “compound 2” for “compound 1”, “20 μL” for “20 uL”, “of 11” for “of 10”
as §1, with “compound 3” for “compound 1”, “20 μL” for “20 uL”, “1 mL” for “1 ml”, “of 12” for “of 10”

For the next series, the system named is rabbit pupil. The series can be described thus: Miotic effect in rabbits (pupil diameter). It is filed as in vivo, male New Zealand White rabbits. As for the experimental part:
The ocular activity evaluation based on the miotic effect in rabbits
The pupil size was determined for several compounds in male New Zealand White rabbits. Pilocarpine hydrochloride (Vuity™) was used as positive control. The pupillometer was placed in the eye socket of the rabbit, and the camera was taken 0 min before and 5 min, 10 min, 15 min, 30 min, 45 min and 1 h after dosing. For the latter picture, take three photos at each time point. After the experiment, the pictures were sorted out to observe the pupil change trend after dosing. This method can be used to evaluate whether the miotic agent moiety in the compounds of the invention can constrict the rabbit's pupil.
Under a constant light source (light intensity 40 Lux), the rabbits were fixed in the rabbit box without anesthesia. Before the experiment, the pupil diameter (mm) before drug administration was measured with a pupil measuring ruler and photographed. […] The time of administration was recorded, and the pupil diameter was measured with a pupillometer and photographed with Canon EOS M6 Mark II (SLR) after 5 min, 10 min, 15 min, 30 min, 45 min, 1 h, 2 h, 3 h, 4 h and 5 h, respectively. […]

Where [1] appears, read: assay decreased more with increasing time.

T1 sequence (P22303 32-614, species assumed): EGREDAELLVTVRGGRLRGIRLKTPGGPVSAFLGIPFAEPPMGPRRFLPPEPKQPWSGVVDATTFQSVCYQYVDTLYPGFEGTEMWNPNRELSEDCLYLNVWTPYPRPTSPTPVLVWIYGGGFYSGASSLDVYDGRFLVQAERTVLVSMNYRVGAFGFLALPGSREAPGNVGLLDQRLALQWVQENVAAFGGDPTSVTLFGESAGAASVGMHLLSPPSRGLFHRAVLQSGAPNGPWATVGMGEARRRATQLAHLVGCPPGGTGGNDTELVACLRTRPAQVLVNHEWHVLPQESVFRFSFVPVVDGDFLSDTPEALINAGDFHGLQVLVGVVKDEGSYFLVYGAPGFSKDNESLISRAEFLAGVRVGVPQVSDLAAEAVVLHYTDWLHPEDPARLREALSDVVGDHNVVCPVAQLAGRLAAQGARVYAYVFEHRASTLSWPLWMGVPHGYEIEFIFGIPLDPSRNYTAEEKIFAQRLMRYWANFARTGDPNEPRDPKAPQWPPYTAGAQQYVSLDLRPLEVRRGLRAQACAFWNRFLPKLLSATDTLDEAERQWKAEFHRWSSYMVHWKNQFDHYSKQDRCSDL

Consider `CC[C@@H]1C(=O)OC[C@@H]1Cc1c[n+](CCOCCOCCOC(=O)CCCC[C@@H]2CCSS2)cn1C` [Compound 3, 3-(2-(2-(2-((5-((R)-1,2-dithiolan-3-yl)pentanoyl)oxy)ethoxy)ethoxy)ethyl)-5-(((3R,4S)-4-ethyl-5-oxotetrahydrofuran-3-yl)methyl)-1-methyl-1H-imidazol-3-ium], for which the “assay of compound remaining during enzymatic hydrolysis” value was 95.40% at acetylcholinesterase (0 min); 88.83% on acetylcholinesterase (20 min); 88.26% at acetylcholinesterase (40 min); 79.40% on acetylcholinesterase (60 min); 75.30% on acetylcholinesterase (80 min); 70.87% at acetylcholinesterase (100 min). In addition, the “assay of compound remaining during enzymatic hydrolysis” value on acetylcholinesterase (120 min) is reported as 68.62%; on acetylcholinesterase (140 min) it was 63.48%; at acetylcholinesterase (160 min), 62.92%; on acetylcholinesterase (180 min) it was 59.60%; on acetylcholinesterase (200 min) it was 54.50%; at acetylcholinesterase (220 min), 55.89%. Also, the “assay of compound remaining during enzymatic hydrolysis” value at acetylcholinesterase (240 min) is listed as 51.61%. In addition, the “hydrolysis by acetylcholinesterase (in words)” value (“hydrolysis … (in words)” below) on acetylcholinesterase (setting [1]) is given as “hydrolyzed by acetylcholinesterase”.
Regarding `CC[C@@H]1C(=O)OC[C@@H]1Cc1c[n+](CCOC(=O)CCCC[C@@H]2CCSS2)cn1C` [Compound 2, 3-(2-((5-((R)-1,2-dithiolan-3-yl)pentanoyl)oxy)ethyl)-5-(((3R,4S)-4-ethyl-5-oxotetrahydrofuran-3-yl)methyl)-1-methyl-1H-imidazol-3-ium chloride], the “assay of compound remaining during enzymatic hydrolysis” value at acetylcholinesterase (0 min) is recorded as 100.00%; on acetylcholinesterase (20 min), 95.69%; on acetylcholinesterase (40 min) it was 88.08%; at acetylcholinesterase (60 min), 86.47%; on acetylcholinesterase (80 min) it was 80.61%; on acetylcholinesterase (100 min) it was 77.56%. Moreover, the “assay of compound remaining during enzymatic hydrolysis” value at acetylcholinesterase (120 min) is 75.40%; at acetylcholinesterase (140 min) it was 72.81%; at acetylcholinesterase (160 min) it was 68.28%; on acetylcholinesterase (180 min), 65.90%; at acetylcholinesterase (200 min) it was 63.68%; on acetylcholinesterase (220 min), 60.88%. Also, the “hydrolysis … (in words)” value at acetylcholinesterase (setting [1]) is “hydrolyzed by acetylcholinesterase”.
For the compound `CC[C@@H]1C(=O)OC[C@@H]1Cc1c[n+](COC(=O)CCCC[C@@H]2CCSS2)cn1C` [Compound 1, 3-(((5-((R)-1,2-dithiolan-3-yl)pentanoyl)oxy)methyl)-5-(((3R,4S)-4-ethyl-5-oxotetrahydrofuran-3-yl)methyl)-1-methyl-1H-imidazol-3-ium chloride], the “rabbit pupil under treatment (recorded images)” value in the series with rabbit pupil is on record as “shrinking”. Moreover, the “miotic effect in rabbits versus positive control” value in the series on rabbit pupil (1.25%, 20 μL/eye topical, compared with Vuity 1.25%) is recorded as “comparable to the positive control drug”. The “assay of compound remaining during enzymatic hydrolysis” value is on record as 70.29% at acetylcholinesterase (0 min); 56.17% at acetylcholinesterase (20 min); 34.03% on acetylcholinesterase (40 min); 30.13% on acetylcholinesterase (60 min); 19.93% on acetylcholinesterase (80 min); 17.19% at acetylcholinesterase (100 min). Also, the “assay of compound remaining during enzymatic hydrolysis” value on acetylcholinesterase (120 min) was 15.06%; on acetylcholinesterase (140 min) it was 11.77%; on acetylcholinesterase (160 min), 8.45%; on acetylcholinesterase (180 min), 6.94%; on acetylcholinesterase (200 min), 5.05%. Moreover, the “hydrolysis … (in words)” value at acetylcholinesterase (after 200 minutes) was “hydrolyzed by acetylcholinesterase almost completely”.
